Here are results for four molecules from US9695155B2, “Herbicidal substituted pyrimidinyloxy benzene compounds” (E. I. DU PONT DE NEMOURS AND COMPANY, priority 2013, dated 2017).

One test deals with smartweed. The test can be described thus: Test E preemergence. The class given is in vivo, ladysthumb smartweed. The conditions noted are these: for Smartweed plant response rating: scale 0 to 100 (0 no effect, 100 complete control); for Plant response rating, Smartweed: scale 0 to 100, 0 no effect, 100 complete control. The text has this: Seeds of plant species selected from corn (Zea mays), soybean (Glycine max), velvetleaf (Abutilon theophrasti), lambsquarters (Chenopodium album), wild poinsettia (Euphorbia heterophylla), palmer pigweed (Amaranthus palmeri), waterhemp (common waterhemp, Amaranthus rudis), surinam grass (Brachiaria decumbens), large (Lg) crabgrass (Digitaria sanguinalis), Brazilian crabgrass (Digitaria horizontalis), fall panicum (Panicum dichotomiflorum), giant foxtail (Setaria faberii), green foxtail (Setaria viridis), goosegrass (Eleusine indica), johnsongrass (Sorghum halepense), ragweed (common ragweed, Ambrosia elatior), barnyardgrass (Echinochloa crus-galli), sandbur (southern sandbur, Cenchrus echinatus), arrowleaf sida (Sida rhombifolia), Italian ryegrass (Lolium multiflorum), dayflower (Virginia (VA) dayflower, Commelina virginica), field bindweed (Convolvulus arvensis), morningglory (Ipomoea coccinea), nightshade (eastern black nightshade, Solanum ptycanthum), kochia (Kochia scoparia), yellow nutsedge (Cyperus esculentus), cocklebur (common cocklebur, Xanthium strumarium), smartweed (ladysthumb smartweed, and hairy beggarticks (Bidens pilosa), were planted into a silt loam soil and treated preemergence with test chemicals formulated in a non-phytotoxic solvent mixture which included a surfactant.
At the same time, plants from these crop and weed species and also horseweed (Canada horseweed, Conyza canadensis), waterhemp_RES1, (ALS & Triazine resistant common waterhemp, Amaranthus rudis), and waterhemp_RES2, (ALS & HPPD resistant common waterhemp, Amaranthus rudis) were planted in pots containing Redi-Earth® planting medium (Scotts Company, 14111 Scottslawn Road, Marysville, Ohio 43041) comprising spaghnum peat moss, vermiculite, wetting agent and starter nutrients were treated with postemergence applications of test chemicals formulated in the same manner. Plants ranged in height from 2 to 18 cm for postemergence treatments (1- to 4-leaf stage). Treated plants and controls were maintained in a greenhouse for 14 to 21 days, after which time all species were compared to controls and visually evaluated. Plant response ratings, summarized in Table E, are based on a scale of 0 to 100 where 0 is no effect and 100 is complete control. A dash (-) response means no test result.

In a further test the test system is Russian thistle. Nature of the test: Test D preemergence. The format is in vivo, Salsola kali. Also noted: key: 0 = no effect, 100 = complete control. From the text: Seeds of plant species selected from bluegrass (annual bluegrass, Poa annua), blackgrass (Alopecurus myosuroides), canarygrass (littleseed canarygrass, Phalaris minor), chickweed (common chickweed, Stellaria media), galium (catchweed bedstraw, Galium aparine), bromegrass, downy (downy bromegrass, Bromus tectorum), field poppy (Papaver rhoeas), field violet (Viola arvensis), green foxtail (Setaria viridis), deadnettle (henbit deadnettle, Lamium amplexicaule), Italian ryegrass (Lolium multiflorum), kochia (Kochia scoparia), lambsquarters (Chenopodium album), oilseed rape (Brassica napus), pigweed (Amaranthus retroflexus), chamomile (scentless chamomile, Matricaria inodora), Russian thistle (Salsola kali), speedwell (bird's-eye speedwell, Veronica persica), spring barley (Hordeum vulgare), spring wheat (Triticum aestivum), wild buckwheat (Polygonum convolvulus), wild mustard (Sinapis arvensis), wild oat (Avena fatua), wild radish (Raphanus raphanistrum), windgrass (Apera spica-venti), winter barley (Hordeum vulgare), and winter wheat (Triticum aestivum) were planted into a silt loam soil and treated preemergence with test chemicals formulated in a non-phytotoxic solvent mixture which included a surfactant.
At the same time, these species were planted in pots containing Redi-Earth® planting medium (Scotts Company, 14111 Scottslawn Road, Marysville, Ohio 43041) comprising spaghnum peat moss, vermiculite, wetting agent and starter nutrients and treated with postemergence applications of the test chemicals formulated in the same manner. Plants ranged in height from 2 to 18 cm (1- to 4-leaf stage). Treated plants and controls were maintained in a controlled growth environment for 7 to 21 days after which time all species were compared to controls and visually evaluated. Plant response ratings, summarized in Table D, are based on a scale of 0 to 100 where 0 is no effect and 100 is complete control. A dash (-) response means no test result.

The subject of another test is surinam grass. The test can be described thus: Test C postemergence. The class given is in vivo, Brachiaria decumbens. The conditions noted are these: for Plant response rating, Surinam Grass: Postemergence, scale 0 to 100 (0 no effect, 100 complete control). From the text:
(§1) Seeds of plant species selected from blackgrass (Alopecurus myosuroides), Italian ryegrass (Lolium multiflorum), wheat, winter (winter wheat, Triticum aestivum), galium (catchweed bedstraw, Galium aparine), corn (Zea mays), large (Lg) crabgrass (Digitaria sanguinalis), giant foxtail (Setaria faberii), johnsongrass (Sorghum halepense), lambsquarters (Chenopodium album), morningglory (Ipomoea coccinea), yellow nutsedge (Cyperus esculentus), pigweed (Amaranthus retroflexus), ragweed (common ragweed, Ambrosia elatior), soybean (Glycine max), barnyardgrass (Echinochloa crus-galli), oilseed rape (Brassica napus), waterhemp (common waterhemp, Amaranthus rudis), kochia (Kochia scoparia), wild oat (Avena fatua), surinam grass (Brachiaria decumbens), foxtail, green (green foxtail, Setaria viridis), goosegrass (Eleusine indica), bromegrass, downy (downy bromegrass, Bromus tectorum), nightshade (eastern black nightshade, Solanum ptycanthum), cocklebur (common cocklebur, Xanthium strumarium), cupgrass, woolly (woolly cupgrass, Eriochloa villosa), bermudagrass (Cynodon dactylon), sunflower, (common oilseed sunflower, Helianthus annuus), Russian thistle (Salsola kali), and velvetleaf (Abutilon theophrasti) were planted into a blend of loam soil and sand and treated preemergence with test chemicals formulated in a non-phytotoxic solvent mixture which included a surfactant.
At the same time, plants selected from these crop and weed species and also barley, winter (winter barley, Hordeum vulgare), windgrass (Apera spica-venti), chickweed (common chickweed, Stellaria media), deadnettle (henbit deadnettle, Lamium amplexicaule), and canarygrass (littleseed canarygrass, Phalaris minor) were planted in pots containing Redi-Earth® planting medium (Scotts Company, 14111 Scottslawn Road, Marysville, Ohio 43041) comprising spaghnum peat moss, vermiculite, wetting agent and starter nutrients and treated with postemergence applications of test chemicals formulated in the same manner. Plants ranged in height from 2 to 18 cm (1- to 4-leaf stage) for postemergence treatments. […]

In a further test the test system is bromegrass, downy. The test can be described thus: Test C postemergence. The class given is in vivo, Bromus tectorum. Particulars: for Plant response rating (0 to 100), Bromegrass, Downy: postemergence; for Plant response rating, Bromegrass, Downy: Postemergence, scale 0 to 100 (0 no effect, 100 complete control).
Text: as §1
(§2) At the same time, plants selected from these crop and weed species and also barley, winter (winter barley, Hordeum vulgare), windgrass (Apera spica-venti), chickweed (common chickweed, Stellaria media), deadnettle (henbit deadnettle, Lamium amplexicaule), and canarygrass (littleseed canarygrass, Phalaris minor) were planted in pots containing Redi-Earth® planting medium (Scotts Company, 14111 Scottslawn Road, Marysville, Ohio 43041) comprising spaghnum peat moss, vermiculite, wetting agent and starter nutrients and treated with postemergence applications of test chemicals formulated in the same manner. Plants ranged in height from 2 to 18 cm (1- to 4-leaf stage) for postemergence treatments. Treated plants and controls were maintained in a greenhouse for 13 to 15 days, after which time all species were compared to controls and visually evaluated. Plant response ratings, summarized in Table C, are based on a scale of 0 to 100 where 0 is no effect and 100 is complete control. A dash (-) response means no test result.

Another test concerns deadnettle. The test can be described thus: Test C postemergence. The class given is in vivo, Lamium amplexicaule. The conditions noted are these: for Plant response rating (0 to 100), Deadnettle: postemergence; for Plant response rating, Deadnettle: Postemergence, scale 0 to 100 (0 no effect, 100 complete control).
Text: as §1, §2

Another test concerns goosegrass. The test can be described thus: Test C postemergence. The format is in vivo, Eleusine indica. The conditions noted are these: for Plant response rating (0 to 100), Goosegrass: postemergence; for Plant response rating, Goosegrass: Postemergence, scale 0 to 100 (0 no effect, 100 complete control).
Text: as §1, §2

Another test has as its system windgrass. Nature of the test: Test C postemergence. The conditions noted are these: for Plant response rating (0 to 100), Windgrass: postemergence; for Plant response rating, Windgrass: Postemergence, scale 0 to 100 (0 no effect, 100 complete control). The format is in vivo, Apera spica-venti.
Text: as §1, §2

[1] abbreviates: 16 g ai/ha, scale 0 (no effect) to 100 (complete control).
Setting [2] is: 31 g ai/ha, scale 0 (no effect) to 100 (complete control).

With `N#Cc1cccc(Oc2ncc(Cl)cn2)c1-n1cc(Cl)cn1` [Compound 72], the “Smartweed plant response rating” value in the test on smartweed (16 g ai/ha), with smartweed (31 g ai/ha) and with smartweed (62 g ai/ha) was 0 throughout. The results for the “Plant response rating, Smartweed” value in the test with smartweed (125 g ai/ha) and in the test with smartweed (250 g ai/ha) were 90 and 98, respectively.

In the case of `Fc1cccc(Oc2ncc(Cl)cn2)c1-n1cc(C(F)F)nn1` [Compound 141, 5-chloro-2-[2-[4-(difluoromethyl)-1H-1,2,3-triazol-1-yl]-3-fluorophenoxy]pyrimidine], the “Plant response rating, Russian Thistle” value in the test on Russian thistle (setting [1]) was 15; with Russian thistle (setting [2]) it was 50; in the test with Russian thistle (62 g ai/ha, scale 0-100), 75; in the test on Russian thistle (125 g ai/ha, scale 0-100), 100.

Turning to `Clc1cnn(-c2ccccc2Oc2ncc(Br)cn2)c1` [Compound 5, 5-bromo-2-[2-(4-chloro-1H-pyrazol-1-yl)phenoxy]pyrimidine], in the test on surinam grass (125 g ai/ha, postemergence), the “Plant response rating (0 to 100), Surinam Grass” value is 45. The “Plant response rating, Surinam Grass” value worked out at 10 with surinam grass (31 g ai/ha, 13 to 15 days) and 35 with surinam grass (62 g ai/ha). Besides, the “Plant response rating (0 to 100), Bromegrass, Downy” value turned out to be 5 in the test with bromegrass, downy (125 g ai/ha) and 10 with bromegrass, downy (250 g ai/ha). The “Plant response rating, Bromegrass, Downy” value turned out to be 5 with bromegrass, downy (31 g ai/ha, 13 to 15 days) and 5 in the test with bromegrass, downy (62 g ai/ha). Besides, the “Plant response rating (0 to 100), Deadnettle” value with deadnettle (125 g ai/ha) and with deadnettle (250 g ai/ha) was 90 in each case. Besides, the “Plant response rating, Deadnettle” value in the test with deadnettle (31 g ai/ha, 13 to 15 days) stood at 50; in the test with deadnettle (62 g ai/ha), 50. In addition, the results for the “Plant response rating (0 to 100), Goosegrass” value in the test on goosegrass (125 g ai/ha) and in the test on goosegrass (250 g ai/ha) were 10 and 15, respectively. For the same molecule, the “Plant response rating, Goosegrass” value amounted to 0 with goosegrass (31 g ai/ha, 13 to 15 days) and 5 with goosegrass (62 g ai/ha). Moreover, the “Plant response rating (0 to 100), Windgrass” value with windgrass (125 g ai/ha) stood at 60; in the test with windgrass (250 g ai/ha) it was 85. For the same molecule, the “Plant response rating, Windgrass” value with windgrass (31 g ai/ha, 13 to 15 days) came out at 10; in the test with windgrass (62 g ai/ha) it was 40.

In the case of `FCc1cccc(Oc2ncc(Cl)cn2)c1-n1cc(I)cn1` [Compound 245], the “Plant response rating, Russian Thistle” value was 5 in the test with Russian thistle (setting [1]); 10 with Russian thistle (setting [2]); 70 with Russian thistle (125 g ai/ha, scale 0-100).
